Literature values, collected in patent US20200093783A1, “Preparation and Anti-HepG2 Application for Urushiol-Based pH Response Micelle Encapsulating Paclitaxel” (Nanjing Zhongsen Biological Technology Co., Ltd., priority 2019, published 2020).

System: most of tumor cells
Settings: background statement

## urushiol
  IC50 (50% inhibiting concentration): 4 mg/L
